# Results published in patent USRE49735E1 (BRISTOL-MYERS SQUIBB COMPANY, priority 2010, dated 2023).
# Values joined by “and” are separate entries in the source; they are usually repeats but may differ in a detail not shown here. Equal values may be shown once.
# Target: human mGluR5A (Homo sapiens, UniProt P41594)
# Test: mGluR5 FLIPR Assay
# Assay type: cell-based
# Settings: positive modulator activity; HEK293 (ZF) cells with human mGluR5A and rat GLAST; Ca++ response to ~EC10 glutamate
# Sequence of human mGluR5A (P41594 21-1180 isoform P41594-2): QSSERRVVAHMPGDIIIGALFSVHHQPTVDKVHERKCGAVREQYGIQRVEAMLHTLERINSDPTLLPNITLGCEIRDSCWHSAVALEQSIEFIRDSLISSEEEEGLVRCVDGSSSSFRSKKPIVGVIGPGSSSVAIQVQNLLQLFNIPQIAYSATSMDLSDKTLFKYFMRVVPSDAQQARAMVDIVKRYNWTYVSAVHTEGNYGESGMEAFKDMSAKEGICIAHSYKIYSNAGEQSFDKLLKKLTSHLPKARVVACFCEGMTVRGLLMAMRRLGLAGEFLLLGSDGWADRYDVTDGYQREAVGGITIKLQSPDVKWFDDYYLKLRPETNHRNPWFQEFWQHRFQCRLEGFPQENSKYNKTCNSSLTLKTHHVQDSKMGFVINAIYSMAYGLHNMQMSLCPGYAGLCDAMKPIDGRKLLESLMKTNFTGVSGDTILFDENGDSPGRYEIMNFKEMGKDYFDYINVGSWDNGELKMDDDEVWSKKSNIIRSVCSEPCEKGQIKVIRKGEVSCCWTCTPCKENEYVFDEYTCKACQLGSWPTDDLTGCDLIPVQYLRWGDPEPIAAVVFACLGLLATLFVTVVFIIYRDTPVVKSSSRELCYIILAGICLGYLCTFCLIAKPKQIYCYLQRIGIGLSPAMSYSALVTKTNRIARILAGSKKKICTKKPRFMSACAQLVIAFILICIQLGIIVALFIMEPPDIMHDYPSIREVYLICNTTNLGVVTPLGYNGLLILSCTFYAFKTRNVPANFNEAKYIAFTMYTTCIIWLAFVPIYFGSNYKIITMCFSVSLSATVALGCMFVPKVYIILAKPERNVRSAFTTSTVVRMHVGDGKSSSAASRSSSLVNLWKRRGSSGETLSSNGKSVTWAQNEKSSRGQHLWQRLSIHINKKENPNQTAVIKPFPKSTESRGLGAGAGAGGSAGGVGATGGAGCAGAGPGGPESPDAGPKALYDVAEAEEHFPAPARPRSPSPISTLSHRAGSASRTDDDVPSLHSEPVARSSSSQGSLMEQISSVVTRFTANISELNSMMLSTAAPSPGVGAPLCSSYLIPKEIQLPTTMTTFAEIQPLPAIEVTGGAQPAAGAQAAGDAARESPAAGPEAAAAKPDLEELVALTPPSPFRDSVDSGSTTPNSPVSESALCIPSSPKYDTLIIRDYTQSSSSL
row,SMILES,EC50
1,"COc1cccc(C#Cc2cccc([C@H]3NC(=O)O[C@@H]3c3cccc(OC)c3)c2)c1 [Example 59, (4R,5R)-5-(3-Methoxyphenyl)-4-(3-((3-methoxyphenyl)ethynyl)phenyl)oxazolidin-2-one]",< 0.1 µM
2,"COc1cccc([C@H]2OC(=O)N[C@@H]2c2cccc(C#Cc3ccnc(C)c3)c2)c1 [Example 60, (4R,5R)-5-(3-Methoxyphenyl)-4-(3-((2-methylpyridin-4-yl)ethnyl)phenyl)oxazolidin-2-one]",> 1 µM
3,COc1cccc([C@H]2OC(=O)N[C@@H]2c2cccc(C#Cc3cccc(OC)n3)c2)c1 [Example 61],< 0.1 µM
4,"COc1cccc([C@H]2OC(=O)N[C@@H]2c2cccc(C#Cc3ncc[nH]3)c2)c1 [Example 62, (4R,5R)-4-(3-((1H-imidazol-2-yl)ethnyl)phenyl)-5-(3-methoxyphenyl)oxazolidin-2-one]",> 1 µM
5,"COc1cccc([C@H]2OC(=O)N[C@@H]2c2cccc(C#Cc3cnccn3)c2)c1 [Example 63, (4R,5R)-5-(3-Methoxyphenyl)-4-(3-(pyrazin-2-ylethynyl)phenyl)oxazolidin-2-one]",< 0.1 µM
6,"COc1cccc([C@H]2OC(=O)N[C@@H]2c2cccc(C#Cc3ncccn3)c2)c1 [Example 64, (4R,5R)-5-(3-Methoxyphenyl)-4-(3-(pyrimidin-2-ylethynyl)phenyl)oxazolidin-2-one]",> 30 µM
7,"COc1cccc([C@H]2OC(=O)N[C@@H]2c2cccc(C#Cc3cncnc3)c2)c1 [Example 65, (4R,5R)-5-(3-Methoxyphenyl)-4-(3-(pyrimidin-5-ylethynyl)phenyl)oxazolidin-2-one]",0.1 to 1 µM and 0.139 µM
8,"COc1cccc([C@H]2OC(=O)N[C@@H]2c2cccc(C#Cc3ccc4ccccc4n3)c2)c1 [Example 66, (4R,5R)-5-(3-Methoxyphenyl)-4-(3-(quinolin-2-ylethynyl)phenyl)oxazolidin-2-one]",0.1 to 1 µM
9,"COc1cccc([C@H]2OC(=O)N[C@@H]2c2cccc(C#Cc3cc4ccccc4cn3)c2)c1 [Example 67, (4R,5R)-4-(3-(Isoquinolin-3-ylethynyl)phenyl)-5-(3-methoxyphenyl)oxazolidin-2-one]",> 1 µM
10,COc1cccc([C@H]2OC(=O)N[C@@H]2c2cccc(C#Cc3cscn3)c2)c1 [Example 68],< 0.1 µM
11,COc1cccc([C@H]2OC(=O)N[C@@H]2c2cccc(C#Cc3ccc(F)nc3)c2)c1 [Example 69],< 0.1 µM
12,"COc1cccc([C@H]2OC(=O)N[C@@H]2c2cccc(C#Cc3ccc(C#N)nc3)c2)c1 [Example 70, 5-((3-((4R,5R)-5-(3-Methoxyphenyl)-2-oxazolidin-4-yl)phenyl)ethynyl)picolinonitrile]",> 1 µM
13,"COc1cccc([C@H]2OC(=O)N[C@@H]2c2cccc(C#Cc3ccc(OC)nc3)c2)c1 [Example 71, (4R,5R)-5-(3-Methoxyphenyl)-4-(3-((6-methoxypyridin-3-yl)ethynyl)phenyl)oxazolidin-2-one]",0.1 to 1 µM and 0.325 µM
14,"COc1cccc([C@H]2OC(=O)N[C@@H]2c2cccc(C#Cc3cccc(F)n3)c2)c1 [Example 72, (4R,5R)-4-(3-((6-Fluoropyridin-2-yl)ethnyl)phenyl)-5-(3-methoxyphenyl)oxazolidin-2-one]",< 0.1 µM
15,"COc1cccc([C@H]2OC(=O)N[C@@H]2c2cccc(C#Cc3ccnc(F)c3)c2)c1 [Example 73, (4R,5R)-4-(3-((2-Fluoropyridin-4-yl)ethynyl)phenyl)-5-(3-methoxyphenyl)oxazolidin-2-one]",< 0.1 µM
16,"COc1cccc([C@H]2OC(=O)N[C@@H]2c2cccc(C#Cc3ccncn3)c2)c1 [Example 74, (4R,5R)-5-(3-Methoxyphenyl)-4-(3-(pyrimidin-4-ylethynyl)phenyl)oxazolidin-2-one]",> 30 µM

# Results, then the compound that gave them:
row,EC50,SMILES
1,> 30 µM,"COc1cccc([C@H]2OC(=O)N[C@@H]2c2cccc(C#Cc3cccc(C#N)n3)c2)c1 [Example 75, 6-((3-((4R,5R)-5-(3-Methoxyphenyl)-2-oxooxazolidin-4-yl)phenyl)ethynyl)picolinonitrile]"
2,> 30 µM,"COc1cccc([C@H]2OC(=O)N[C@@H]2c2cccc(C#Cc3cnc4ccccc4c3)c2)c1 [Example 76, (4R,5R)-5-(3-Methoxyphenyl)-4-(3-(quinolin-3-ylethynyl)phenyl)oxazolidin-2-one]"
3,> 1 µM,"COc1cccc([C@H]2OC(=O)N[C@@H]2c2cccc(C#Cc3cccc(O)n3)c2)c1 [Example 77, (4R,5R)-4-(3-((6-Hydroxypyridin-2-yl)ethnyl)phenyl)-5-(3-methoxyphenyl)-oxazolidin-2-one]"
4,> 1 µM,"COc1cccc([C@H]2OC(=O)N[C@@H]2c2cccc(C#Cc3cccnc3OC)c2)c1 [Example 78, (4R,5R)-5-(3-Methoxyphenyl)-4-(3-((2-methoxypyridin-3-yl)ethynyl)phenyl)oxazolidin-2-one]"
5,< 0.1 µM,"COc1cccc([C@H]2OC(=O)N[C@@H]2c2cccc(C#Cc3cccnc3F)c2)c1 [Example 79, (4R,5R)-4-(3-((2-Fluoropyridin-3-yl)ethynyl)phenyl)-5-(3-methoxyphenyl)oxazolidin-2-one]"
6,< 0.1 µM,"COc1cccc([C@H]2OC(=O)N[C@@H]2c2cccc(C#Cc3cncc(C#N)c3)c2)c1 [Example 80, 5-((3-((4R,5R)-5-(3-Methoxyphenyl)-2-oxooxazolidin-4yl)-phenyl)ethynyl)nicotinonitrile]"
7,< 0.1 µM,"COc1cccc([C@H]2OC(=O)N[C@@H]2c2cccc(C#Cc3cncc(F)c3)c2)c1 [Example 81, (4R,5R)-4-(3-((5-Fluoropyridin-3-yl)ethynyl)phenyl)-5-(3-methoxyphenyl)oxazolidin-2-one]"
8,0.1 to 1 µM,"COc1cccc([C@H]2OC(=O)N[C@@H]2c2cccc(C#Cc3ccc(Cl)nc3)c2)c1 [Example 82, (4R,5R)-4-(3-((6-Chloropyridin-3-yl)ethynyl)phenyl)-5-(3-methoxyphenyl)oxazolidin-2-one]"
9,0.1 to 1 µM,"COc1cccc([C@H]2OC(=O)N[C@@H]2c2cccc(C#Cc3ccc(C)nc3)c2)c1 [Example 83, (4R,5R)-5-(3-Methoxyphenyl)-4-(3-((6-methylpyridin-3-yl)ethynyl)phenyl)oxazolidin-2-one]"
10,> 1 µM,"COc1cccc([C@H]2OC(=O)N[C@@H]2c2cccc(C#Cc3cnccc3Cl)c2)c1 [Example 84, (4R,5R)-4-(3-((4-Chloropyridin-3-yl)ethynyl)phenyl)-5-(3-methoxyphenyl)oxazolidin-2-one]"
11,> 1 µM,"COc1cccc([C@H]2OC(=O)N[C@@H]2c2cccc(C#Cc3cccnc3Cl)c2)c1 [Example 85, (4R,5R)-4-(3-((2-Chloropyridin-3-yl)ethynyl)phenyl)-5-(3-methoxyphenyl)oxazolidin-2-one]"
12,< 0.1 µM,"COc1cccc([C@H]2OC(=O)N[C@@H]2c2cccc(C#Cc3cncc(C)c3)c2)c1 [Example 86, (4R,5R)-5-(3-Methoxyphenyl)-4-(3-((5-methylpyridin-3-yl)ethynyl)phenyl)oxazolidin-2-one]"
13,> 1 µM,"COc1cccc([C@H]2OC(=O)N[C@@H]2c2cccc(C#Cc3cccnc3C)c2)c1 [Example 87, (4R,5R)-5-(3-Methoxyphenyl)-4-(3-((2-methylpyridin-3-yl)ethynyl)phenyl)oxazolidin-2-one]"
14,> 1 µM,"COc1cccc([C@H]2OC(=O)N[C@@H]2c2cccc(C#Cc3cnccc3C)c2)c1 [Example 88, (4R,5R)-5-(3-Methoxyphenyl)-4-(3-((4-methylpyridin-3-yl)ethynyl)phenyl)oxazolidin-2-one]"
